According to patent US20210300939A1, “Single Molecule Compounds Providing Multi-Target Inhibition of BTK and Other Proteins and Methods of Use Thereof” (SignalRx Pharmaceuticals, Inc., priority 2018, published 2021):

How the values were obtained:
[1] = molecular target: T1, BRD4-1 (binding domain 1 of BRD4) (Homo sapiens, UniProt O60885); test: BRD4 binding domain 1 inhibition (Reaction Biology Corp.); conditions: 10-point curve; read-out: Target IC50 BRD4-1
T1 construct: purchased Reaction Biology Corp., Malvern, Pa; (contract assay)
Protocol: (§1) The BTK, PI3K, and/or bromodomain inhibitory activity of a compound of the invention can be determined by methods known to the skilled artisan, or by procuring relevant analysis by a commercial vendor offering such services. […] In vivo, PI3K inhibition can be determined from target tissue biopsies by standard tissue processing in which cells are disrupted and Western Blot analysis is performed to determine the presence or absence of pAKT (substrate of PI3K) relative to a control sample. PI3K inhibition assays and BTK inhibition assays are known in the art and can be procured commercially through vendors such as Reaction Biology (Malvern, Pa.). The activity of a compound of the invention as an inhibitor of a bromodomain-containing protein, such as a BET protein, including BRD2, BRD3, BRD4, and/or BRDT, or an isoform or mutant thereof, may be determined in vitro, in vivo, or in a cell line. In vitro assays include assays that determine inhibition of bromodomain-containing proteins. Alternatively, inhibitor binding may be determined by running a competition experiment where a provided compound is incubated with a bromodomain-containing protein, such as a BET protein bound to known ligands, labeled or unlabeled. In vitro bromodomain inhibition assays can be performed using Alpha Screen Technology (Perkin Elmer Life and Analytical Sciences, Shelton, Conn.). In vivo bromodomain inhibition can be determined indirectly by evaluating the amount of a protein whose gene transcription is influenced or controlled by the bromodomain protein, for example, MYCN protein transcription is controlled by BRD4 (J. E. Delmore et al., Cell 2011, 146, 904-917; A. Puissant, Cancer Discov. 2013, 3, 308-323).
(§2) Compounds of the invention were analyzed for their ability to inhibit target proteins in vitro. PI3K alpha, gamma, and delta inhibition activity was determined by Thermo Fisher Scientific-Biosciences Life Sciences Solutions, Madison, Wis. The bromodomain protein inhibition (binding domain 1 and 2 of BRD4) was determined at Reaction Biology Corp., Malvern, Pa. BTK inhibition was performed by Reaction Biology Corp., Malvern, Pa.
(§3) Additional information regarding the testing procedures is available at each company's website on the internet. The IC50 data was calculated from a 10-point curve by the vendor and is compiled in ranges in the Table 6 below.

[2] = molecular target: T2, PI3K α (Homo sapiens, UniProt P42336); test: PI3K alpha inhibition (Thermo Fisher Scientific); type: biochemical; conditions: 10-point curve; read-out: Target IC50 PI3K α
T2 construct: purchased Thermo Fisher Scientific-Biosciences Life Sciences Solutions, Madison, Wis; (contract assay)
T2 sequence (P42336 whole entry): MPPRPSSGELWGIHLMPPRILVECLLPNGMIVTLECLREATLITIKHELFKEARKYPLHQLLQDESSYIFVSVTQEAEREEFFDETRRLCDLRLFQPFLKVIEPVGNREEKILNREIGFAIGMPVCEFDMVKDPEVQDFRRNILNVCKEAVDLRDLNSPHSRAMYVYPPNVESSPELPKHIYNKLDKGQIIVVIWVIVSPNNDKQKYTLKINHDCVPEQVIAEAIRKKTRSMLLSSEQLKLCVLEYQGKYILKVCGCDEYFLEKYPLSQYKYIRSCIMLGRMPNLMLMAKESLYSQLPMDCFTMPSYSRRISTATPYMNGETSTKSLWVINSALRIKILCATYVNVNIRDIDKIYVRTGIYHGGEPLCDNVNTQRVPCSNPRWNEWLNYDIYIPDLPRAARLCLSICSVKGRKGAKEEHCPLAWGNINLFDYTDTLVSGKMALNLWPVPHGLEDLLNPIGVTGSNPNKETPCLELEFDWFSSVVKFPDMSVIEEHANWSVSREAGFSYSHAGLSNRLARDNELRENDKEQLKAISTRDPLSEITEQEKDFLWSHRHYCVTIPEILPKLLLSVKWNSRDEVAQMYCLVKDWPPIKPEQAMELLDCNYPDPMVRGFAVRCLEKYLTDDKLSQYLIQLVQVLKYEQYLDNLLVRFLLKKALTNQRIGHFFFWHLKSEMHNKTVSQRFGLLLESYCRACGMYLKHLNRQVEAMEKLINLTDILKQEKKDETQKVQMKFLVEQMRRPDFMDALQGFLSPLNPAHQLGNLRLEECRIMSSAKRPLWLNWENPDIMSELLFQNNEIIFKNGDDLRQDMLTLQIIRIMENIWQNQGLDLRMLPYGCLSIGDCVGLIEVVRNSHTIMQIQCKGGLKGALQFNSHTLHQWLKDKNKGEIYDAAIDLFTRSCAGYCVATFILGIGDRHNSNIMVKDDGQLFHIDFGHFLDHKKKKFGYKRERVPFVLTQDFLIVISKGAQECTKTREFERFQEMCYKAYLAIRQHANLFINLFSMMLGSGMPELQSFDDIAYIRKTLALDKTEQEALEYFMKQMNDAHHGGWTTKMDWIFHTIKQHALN
T2 sequence (P27986 whole entry partner): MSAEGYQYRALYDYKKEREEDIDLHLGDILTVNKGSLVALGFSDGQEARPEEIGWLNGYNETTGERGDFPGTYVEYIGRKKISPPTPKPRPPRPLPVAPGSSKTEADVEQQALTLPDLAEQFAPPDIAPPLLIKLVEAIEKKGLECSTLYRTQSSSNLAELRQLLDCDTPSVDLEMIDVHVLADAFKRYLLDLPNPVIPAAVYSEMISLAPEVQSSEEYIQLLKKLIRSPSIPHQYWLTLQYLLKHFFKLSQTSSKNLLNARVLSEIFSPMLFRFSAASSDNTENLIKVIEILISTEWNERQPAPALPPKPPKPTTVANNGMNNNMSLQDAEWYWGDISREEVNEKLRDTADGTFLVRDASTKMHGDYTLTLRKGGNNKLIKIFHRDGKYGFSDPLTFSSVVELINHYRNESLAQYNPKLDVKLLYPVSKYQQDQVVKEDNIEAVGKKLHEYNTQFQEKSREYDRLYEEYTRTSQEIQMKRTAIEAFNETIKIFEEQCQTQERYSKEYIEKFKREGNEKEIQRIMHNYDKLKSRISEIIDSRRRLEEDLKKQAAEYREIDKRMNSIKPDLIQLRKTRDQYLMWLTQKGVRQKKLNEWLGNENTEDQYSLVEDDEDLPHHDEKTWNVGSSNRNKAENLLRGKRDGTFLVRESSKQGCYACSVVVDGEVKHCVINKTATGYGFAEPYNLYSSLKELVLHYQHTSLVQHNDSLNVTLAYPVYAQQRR
Protocol: as §1, §2, §3

[3] = molecular target: T3, PI3K δ (Homo sapiens, UniProt O00329); test: PI3K delta inhibition (Thermo Fisher Scientific); type: biochemical; conditions: 10-point curve; read-out: Target IC50 PI3K δ
T3 construct: purchased Thermo Fisher Scientific-Biosciences Life Sciences Solutions, Madison, Wis; (contract assay)
T3 sequence (O00329 whole entry): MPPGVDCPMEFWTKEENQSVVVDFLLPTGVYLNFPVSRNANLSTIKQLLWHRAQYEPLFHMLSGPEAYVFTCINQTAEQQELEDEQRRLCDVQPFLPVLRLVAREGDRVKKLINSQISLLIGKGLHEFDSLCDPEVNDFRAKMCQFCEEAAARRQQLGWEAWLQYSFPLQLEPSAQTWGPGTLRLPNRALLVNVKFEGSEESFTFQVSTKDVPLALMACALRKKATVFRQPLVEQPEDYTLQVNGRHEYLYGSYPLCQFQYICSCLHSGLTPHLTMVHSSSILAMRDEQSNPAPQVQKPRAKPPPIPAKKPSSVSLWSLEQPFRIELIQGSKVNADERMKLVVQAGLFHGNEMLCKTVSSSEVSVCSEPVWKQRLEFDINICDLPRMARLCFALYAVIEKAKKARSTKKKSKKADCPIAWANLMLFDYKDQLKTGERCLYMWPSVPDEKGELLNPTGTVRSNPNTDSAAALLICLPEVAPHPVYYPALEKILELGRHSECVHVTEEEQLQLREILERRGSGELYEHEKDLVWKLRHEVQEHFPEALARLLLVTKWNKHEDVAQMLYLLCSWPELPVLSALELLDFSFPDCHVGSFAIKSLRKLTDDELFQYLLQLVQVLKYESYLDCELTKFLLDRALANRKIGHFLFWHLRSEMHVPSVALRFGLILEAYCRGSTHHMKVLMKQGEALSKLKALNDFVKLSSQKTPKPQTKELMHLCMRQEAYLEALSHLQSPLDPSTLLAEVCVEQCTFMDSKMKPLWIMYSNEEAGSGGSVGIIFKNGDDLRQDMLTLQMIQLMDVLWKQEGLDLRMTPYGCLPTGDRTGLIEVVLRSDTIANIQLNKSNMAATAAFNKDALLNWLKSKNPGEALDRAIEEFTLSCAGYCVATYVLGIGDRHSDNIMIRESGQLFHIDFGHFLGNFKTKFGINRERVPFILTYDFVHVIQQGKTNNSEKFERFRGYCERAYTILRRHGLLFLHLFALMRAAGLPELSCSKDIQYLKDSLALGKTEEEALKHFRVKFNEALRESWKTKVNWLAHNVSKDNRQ
T3 sequence (P27986 whole entry partner): as the sequence (P27986 whole entry partner) above
Protocol: as §1, §2, §3

[4] = molecular target: T4, BTK (WT) (Homo sapiens, UniProt Q06187); test: native BTK inhibition (Reaction Biology Corp.); type: biochemical; conditions: 10-point curve; read-out: Target IC50 BTK (WT)
T4 construct: purchased Reaction Biology Corp., Malvern, Pa; (contract assay)
T4 sequence (Q06187 whole entry): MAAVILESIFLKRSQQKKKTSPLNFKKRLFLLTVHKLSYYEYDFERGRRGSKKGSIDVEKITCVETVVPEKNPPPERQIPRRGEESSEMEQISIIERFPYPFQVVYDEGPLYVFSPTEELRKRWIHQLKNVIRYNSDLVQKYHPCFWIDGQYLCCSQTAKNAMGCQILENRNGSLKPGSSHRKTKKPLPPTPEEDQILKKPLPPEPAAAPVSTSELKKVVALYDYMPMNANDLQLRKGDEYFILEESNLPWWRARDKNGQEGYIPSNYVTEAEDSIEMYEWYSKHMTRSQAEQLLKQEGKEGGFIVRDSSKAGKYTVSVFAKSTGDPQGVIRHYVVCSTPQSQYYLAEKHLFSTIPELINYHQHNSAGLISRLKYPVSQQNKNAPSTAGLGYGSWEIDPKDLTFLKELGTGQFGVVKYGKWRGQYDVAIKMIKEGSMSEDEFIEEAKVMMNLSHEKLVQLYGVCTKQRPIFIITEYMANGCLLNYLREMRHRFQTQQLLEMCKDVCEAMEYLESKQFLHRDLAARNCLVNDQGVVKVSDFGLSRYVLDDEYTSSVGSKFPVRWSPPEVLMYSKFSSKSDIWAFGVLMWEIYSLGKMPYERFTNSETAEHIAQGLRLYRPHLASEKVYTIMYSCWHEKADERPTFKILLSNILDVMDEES
Protocol: as §2, §3

[5] = molecular target: T5, BTK (C481S) (Homo sapiens, UniProt Q06187, C481S); test: BTK cysteine mutant C481S inhibition (Reaction Biology Corp.); type: biochemical; conditions: for Ratio C481S/WT: ratio of the BTK IC50 values, C481S over wild-type
T5 construct: purchased Reaction Biology Corp., Malvern, Pa; (contract assay)
T5 sequence (Q06187 whole entry C481S): as the sequence (Q06187 whole entry) above, with C481S counted along it
Protocol: as §2, §3

[6] = system: JeKo-1 cells; test: Cell viability (Celltiter-Glo), JeKo-1; type: cell-based; conditions: Homo sapiens, 48 hours
Protocol: (§4) The results of this experiment are shown in FIGS. 1A-1C, and in Table 7 below. Human mantle cell lymphoma cell lines were grown in 96 well plates with 5000 cells per well in RPMI 1640 media supplemented with 10% fetal bovine serum. Cells were treated for 48 hours with a concentration range of each compound from 50 nM to 50 uM. Cell viability a measure of viable cell numbers was determined using a Celltiter-Glo^R reagent for each concentration in order to construct an IC50 curve for each compound in each cell line.

[7] = system: Mino cells; test: Cell viability (Celltiter-Glo), Mino; type: cell-based; conditions: Homo sapiens, 48 hours
Protocol: as §4

[8] = system: Granta519 cells; test: Cell viability (Celltiter-Glo), Granta519; type: cell-based; conditions: Homo sapiens, Granta-519, 48 hours
Protocol: as §4

[9] = system: Human mantle cell lymphoma cell lines; test: Cell viability, mantle cell lymphoma cell lines (overall conclusion); type: cell-based; conditions: in vitro, 48 hours
Protocol: as §4

[10] = system: pBTK(Y223) in JeKo and Mino cells; test: Western blot, phosphorylation of BTK at Tyr223 in anti-IgM stimulated cells; type: cell-based, human; conditions: for Suppression of pBTK(Y223): JeKo cells stimulated with F(ab′) and anti-human IgM, various concentrations, FIG. 3B; for Suppression of pBTK (Tyr223): anti-IgM stimulated JeKo and Mino cells, FIGS. 2A-2D
[11] = system: pAKT(S473) in JeKo and Mino cells; test: Western blot, phosphorylation of AKT at Ser 473 in anti-IgM stimulated cells; type: cell-based, human; conditions: for Suppression of pAKT: JeKo cells stimulated with F(ab′) and anti-human IgM, various concentrations, FIG. 3B; for Suppression of pAKT (Ser 473): anti-IgM stimulated JeKo and Mino cells, FIGS. 2A-2D
Protocol: Phosphorylation of BTK at Tyr223 and AKT at Ser 473 were determined by Western blot analysis. The results are shown in FIGS. 2A-2B (JeKo cells) and FIGS. 2C-2D (Mino cells). Blots were reprobed for total BTK, AKT, and β-actin.

[12] = system: pBTK in JeKo cells; test: Washout Western blot for pBTK in IgM-stimulated JeKo cells; type: cell-based, human; conditions: 5 μM or 1 μM for 3 hours, washed with PBS three times, 4 hours recovery
[13] = system: pAKT in JeKo cells; test: Washout Western blot for pAKT in IgM-stimulated JeKo cells; type: cell-based, human; conditions: 5 μM or 1 μM for 3 hours, washed with PBS three times, 4 hours recovery
[14] = molecular target: T6, BRD4-2 (binding domain 2 of BRD4) (Homo sapiens, UniProt O60885); test: BRD4 binding domain 2 inhibition (Reaction Biology Corp.); conditions: 10-point curve; read-out: Target IC50 BRD4-2
T6 construct: purchased Reaction Biology Corp., Malvern, Pa; (contract assay)
Protocol: as §1, §2, §3

[15] = molecular target: T7, PI3K γ (Homo sapiens, UniProt P48736); test: PI3K gamma inhibition (Thermo Fisher Scientific); type: biochemical; conditions: 10-point curve; read-out: Target IC50 PI3K γ
T7 construct: purchased Thermo Fisher Scientific-Biosciences Life Sciences Solutions, Madison, Wis; (contract assay)
T7 sequence (P48736 whole entry): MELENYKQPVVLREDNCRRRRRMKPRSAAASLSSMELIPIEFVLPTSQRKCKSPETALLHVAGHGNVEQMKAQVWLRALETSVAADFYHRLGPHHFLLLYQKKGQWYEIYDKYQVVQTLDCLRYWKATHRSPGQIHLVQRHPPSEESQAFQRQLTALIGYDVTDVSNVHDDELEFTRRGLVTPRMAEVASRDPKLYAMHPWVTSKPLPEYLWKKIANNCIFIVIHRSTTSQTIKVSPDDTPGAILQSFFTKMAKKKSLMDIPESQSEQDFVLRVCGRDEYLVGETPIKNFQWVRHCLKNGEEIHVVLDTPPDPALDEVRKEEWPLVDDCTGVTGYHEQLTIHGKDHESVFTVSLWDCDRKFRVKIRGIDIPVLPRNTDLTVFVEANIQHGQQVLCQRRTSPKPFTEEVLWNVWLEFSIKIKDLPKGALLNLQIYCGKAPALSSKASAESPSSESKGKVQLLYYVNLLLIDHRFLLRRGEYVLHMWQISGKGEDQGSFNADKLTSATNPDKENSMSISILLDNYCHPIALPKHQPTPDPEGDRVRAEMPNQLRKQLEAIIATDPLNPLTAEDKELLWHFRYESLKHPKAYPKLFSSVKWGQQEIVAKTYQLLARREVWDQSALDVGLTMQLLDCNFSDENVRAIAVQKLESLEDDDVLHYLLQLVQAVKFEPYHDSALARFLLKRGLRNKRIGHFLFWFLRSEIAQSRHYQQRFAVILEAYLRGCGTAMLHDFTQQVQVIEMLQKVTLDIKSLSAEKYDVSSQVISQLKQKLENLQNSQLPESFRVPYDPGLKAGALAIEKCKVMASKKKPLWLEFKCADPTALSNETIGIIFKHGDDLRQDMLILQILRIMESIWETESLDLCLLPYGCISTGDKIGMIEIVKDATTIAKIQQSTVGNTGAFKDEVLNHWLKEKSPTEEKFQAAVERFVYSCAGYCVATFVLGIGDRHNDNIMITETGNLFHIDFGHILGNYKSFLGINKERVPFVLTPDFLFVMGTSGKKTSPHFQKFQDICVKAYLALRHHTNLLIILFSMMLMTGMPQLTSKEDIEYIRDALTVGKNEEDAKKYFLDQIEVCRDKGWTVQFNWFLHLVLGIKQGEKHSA
Protocol: as §1, §2, §3

[16] = system: JeKo-1 cells; test: Percentage cells in apoptosis, JeKo-1; type: cell-based, human
Text: (§5) Additionally apoptosis data was obtained in both JeKo and Mino cells for compound 7.

[17] = system: Mino cells; test: Percentage cells in apoptosis, Mino; type: cell-based, human; conditions: 24-hour
Text: as §5

[18] = system: JeKo and Mino cells; test: Apoptosis, both mantle cell lymphoma lines (overall statement); type: cell-based, human
Text: as §5

[19] = system: pBTK(Y223) in JeKo-BTK-WT and JeKo-BTK-C481S cells; test: Western blot for pBTK(Y223) in JeKo-BTK wild-type and JeKo-BTK-C481S cells; type: cell-based, human; conditions: 1 hour, different concentrations, FIGS. 6A and 6B
[20] = system: pAKT(S473) in JeKo-BTK-WT and JeKo-BTK-C481S cells; test: Western blot for pAKT in JeKo-BTK wild-type and JeKo-BTK-C481S cells; type: cell-based, human; conditions: 1 hour, different concentrations, FIGS. 6A and 6B
[21] = system: pBTK in JeKo-BTK-C481S cells; test: Washout immunoblot for pBTK in JeKo-BTK-C481S cells; type: cell-based, human; conditions: 3 hours, washed with PBS, 4 hours recovery, FIG. 6C
[22] = molecular target: T8, fluorophore-tagged BRD4 fusion protein (Homo sapiens, UniProt O60885); test: Chromatin-release assay in JeKo cells; type: cell-based; conditions: 1 μM, confocal microscopy
T8 construct: expressed in transfected cells; host or cells: JeKo cells
Protocol: A chromatin-release assay was performed on JeKo cells treated with 1 μM Compound 7.

[23] = system: JeKo cells; test: Cell cycle analysis in JeKo cells; type: cell-based, human; conditions: MCL cells, 5 μM, FIG. 4
[24] = system: PI3 kinases; conditions: cited from earlier work
[25] = system: breast cancer stem cells; conditions: women with breast tumors with high levels of HER2 protein; decreased from 11%; cited from earlier work

IC50 [1] [nM] | IC50 [2] [nM] | IC50 [3] [nM] | IC50 [4] [nM] | Ratio C481S/WT [5] | Structure (SMILES) | IC50 [6] [nM] | IC50 [7] [nM] | IC50 [8] [nM] | Potency in reducing mantle cell lymphoma viability as compared to Ibrutinib [9] | Suppression of pBTK(Y223) [10] | Suppression of pBTK (Tyr223) [10] | Suppression of pAKT [11] | Suppression of pAKT (Ser 473) [11] | other results
< 1000 | < 1000 | < 1000 | < 1000 | >81 | C=CC(=O)Nc1cccc(-c2csc3c(=O)cc(N4CCOCC4)oc23)c1 [Compound 1, 1-[m-(5-Morpholino-7-oxo-4-oxa-1-thia-3-indenyl)phenylamino]-2-propen-1-one] | 1000 to 10000 | < 1000 | 1000 to 10000 | markedly more potent | suppressed | block the catalytic activity | suppressed | block the catalytic activity | pBTK inhibition after washing [12]: not diminished by washing; pAKT after washing [13]: restored after washing
< 1000 | < 1000 | < 1000 | < 1000 | 728 | C=CC(=O)N1CCOc2ccc(-c3csc4c(=O)cc(N5CCOCC5)oc34)cc21 [Compound 7, 1-[7-(5-Morpholino-7-oxo-4-oxa-1-thia-3-indenyl)-4-oxa-1-aza-2,3-dihydro-1H-naphth-1-yl]-2-propen-1-one] | < 1000 | < 1000 | 1000 to 10000 | markedly more potent | – | block the catalytic activity | – | block the catalytic activity | IC50 [14]: < 1000 nM; IC50 [15]: < 1000 nM; IC50 ([5]; 10-point curve, read-out: Target IC50 BTK (C481S)): 10000 to 30000 nM; Percentage cells in apoptosis ([16]; JeKo-1, 24-hour, Early): + (less than 5%); Percentage cells in apoptosis ([16]; JeKo-1, 24-hour, Late): +++ (between 10% and 30%); Percentage cells in apoptosis ([16]; JeKo-1, 24-hour, Total): +++ (between 10% and 30%); Percentage cells in apoptosis ([16]; JeKo-1, 48-hour, Early): +++ (between 10% and 30%); Percentage cells in apoptosis ([16]; JeKo-1, 48-hour, Late): +++ (between 10% and 30%); Percentage cells in apoptosis ([16]; JeKo-1, 48-hour, Total): ++++ (between 30% and 50%); Percentage cells in apoptosis ([17]; Early): +++ (between 10% and 30%); Percentage cells in apoptosis ([17]; Late): ++ (between 5% and 10%); Percentage cells in apoptosis ([17]; Total): +++ (between 10% and 30%); Apoptosis compared with exposure to Ibrutinib [18]: much more apoptosis; Inhibition of pBTK [19]: inhibit pBTK; Inhibition of pAKT [20]: inhibits pAKT and in a dose dependent manner; pBTK suppression activity upon washout [21]: irreversible; Release of BRD4 from chromatin [22]: released a fluorophore-tagged BRD4 fusion protein from chromatin; Cell cycle effect [23]: Cell Cycle Arrest
– | – | – | – | – | C=CC(=O)Nc1ccc(-c2csc3c(=O)cc(N4CCOCC4)oc23)cc1 [Compound 13] | < 1000 | < 1000 | < 1000 | markedly more potent | suppressed | – | suppressed | – | –
– | – | – | – | – | O=c1cc(N2CCOCC2)oc2c(-c3ccccc3)cccc12 [LY294002, 2-(4-morpholinyl)-8-phenyl-4H-1-benzopyran-4-one] | – | – | – | – | – | – | – | – | IC50 [24]: 1400 nM
– | – | – | – | – | CS(=O)(=O)CCNCc1ccc(-c2ccc3ncnc(Nc4ccc(OCc5cccc(F)c5)c(Cl)c4)c3c2)o1 [Lapatinib] | – | – | – | – | – | – | – | – | Breast cancer stem cells in biopsies [25]: 5 % of cells
